Experimental data: BindingDB's records for doi:10.1021/acs.jmedchem.7b01231 (Dongguk University, 2017)

target: Hypoxia-inducible factor 1-alpha (Homo sapiens, UniProt Q16665); assay: ChEBML_1681384
Description: Inhibition of HIF-1alpha in human HCT116 cells incubated for 12 hrs under hypoxic conditions by HRE dual-luciferase reporter gene assay

Chain of Hypoxia-inducible factor 1-alpha (Q16665 whole entry): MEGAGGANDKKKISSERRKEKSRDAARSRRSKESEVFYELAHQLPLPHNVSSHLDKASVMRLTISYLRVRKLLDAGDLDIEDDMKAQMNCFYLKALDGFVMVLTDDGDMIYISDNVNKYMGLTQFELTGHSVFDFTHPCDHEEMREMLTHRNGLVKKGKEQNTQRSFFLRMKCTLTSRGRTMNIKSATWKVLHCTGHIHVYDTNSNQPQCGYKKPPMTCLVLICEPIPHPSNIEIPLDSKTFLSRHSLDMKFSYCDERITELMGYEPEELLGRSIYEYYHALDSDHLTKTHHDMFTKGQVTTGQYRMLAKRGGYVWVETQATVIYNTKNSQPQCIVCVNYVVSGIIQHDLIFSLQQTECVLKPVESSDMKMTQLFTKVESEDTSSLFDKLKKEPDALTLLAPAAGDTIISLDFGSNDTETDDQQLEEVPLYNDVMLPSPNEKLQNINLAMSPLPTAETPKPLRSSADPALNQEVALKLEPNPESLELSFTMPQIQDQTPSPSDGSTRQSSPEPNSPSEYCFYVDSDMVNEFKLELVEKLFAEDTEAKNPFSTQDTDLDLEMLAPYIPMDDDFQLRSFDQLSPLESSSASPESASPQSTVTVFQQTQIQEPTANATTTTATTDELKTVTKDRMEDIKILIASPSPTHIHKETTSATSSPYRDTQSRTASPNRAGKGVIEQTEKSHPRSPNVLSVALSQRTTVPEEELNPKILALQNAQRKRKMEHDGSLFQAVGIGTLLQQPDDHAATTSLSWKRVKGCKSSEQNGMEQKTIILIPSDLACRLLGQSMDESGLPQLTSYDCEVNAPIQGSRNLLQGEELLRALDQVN

Row | IC50 [µM] | Compound
1 | > 40 | COC(=O)c1ccc(OC)c(NC(=O)COc2ccc(C(C)(C)CC(C)(C)C)cc2)c1
2 | > 40 | CCCCCc1ccc(OCC(=O)Nc2cccc(C(=O)OC)c2)cc1
3 | 1.4 | COC(=O)c1cccc(NC(=O)CCCOc2ccc(C(C)(C)CC(C)(C)C)cc2)c1
